Data on 17 molecules can be found in US11780833B2, “Emetine derivatives, prodrugs containing same, and methods of treating conditions using same” (HOWARD UNIVERSITY, priority 2011, dated 2023).

Read-outs that look alike come from different tables or passages of the source. Where only a bound is given, the exact number is not on record here.

Assay type in all cases: cell-based
In one assay the test system is PC3 cells. The experiment in a line: cells. The note with it: Homo sapiens. As for the experimental part:
(§1) Studies were carried out on three prostate cancer cell lines: LNCaP, PC3, and DU145. […] There was not a significant difference in cytotoxicity of emetine between days 3 and 7. […] This increase is most likely due to the release of emetine from the dithiocarbamate salt over the time period. Further drug release studies at pH 5 confirmed about 45% release of emetine from the dithiocarbamate salt after 3-day incubation at this acidic pH maintained at 37° C., whereas release of emetine from the dithiocarbamate salt was not observed at physiological pH (e.g., about 7.4).
(§2) Various compounds prepared according to Examples 1-5 were studied in LNCaP, PC3, and DU145 cells.
(§3) Various compounds prepared according to Example 6 were studied in DU145 and PC3 cells. The IC50 was determined at 3, 5, and 7 days.

The subject of the next assay is DU145 cells. The experiment in a line: cells. The note with it: Homo sapiens. As for the experimental part:
as §1, §2, §3

The test system of a further assay is LNCaP cells. The experiment in a line: Cytotoxicity in LNCaP prostate cancer cell line. The note with it: Homo sapiens, 168 h, read-out: IC50 after 7 days. The protocol: as §1, §2
The mark [1] stands for this setting: PC-3, 168 h, read-out: IC50 after 7 days.
Where [2] appears, read: DU-145, 168 h, read-out: IC50 after 7 days.
Setting [3] is: PC-3, 72 h, read-out: IC50 in PC3.
Setting [4] is: PC-3, 120 h, read-out: IC50 in PC3.
Setting [5] is: PC-3, 168 h, read-out: IC50 in PC3.
Where [6] appears, read: DU-145, 72 h, read-out: IC50 in DU145.
The mark [7] stands for this setting: DU-145, 120 h, read-out: IC50 in DU145.
Setting [8] is: DU-145, 168 h, read-out: IC50 in DU145.

In general, IC50 refers to the concentration that gives 50% inhibition. On to `CCC1CN2CCc3cc(OC)c(OC)cc3C2CC1CC1c2cc(OC)c(OC)cc2CCN1S(=O)(=O)c1ccc(OC)cc1` (stereo not shown) [Compound 8f], for which, in the assay on PC3 cells (setting [1]), the half-inhibitory concentration (IC50) turned out to be 6080 ± 105 nM.
Still for that read-out and setting: the same measure for `CCC1CN2CCc3cc(OC)c(OC)cc3C2CC1CC1c2cc(OC)c(OC)cc2CCN1C(=S)Nc1ccccc1` (stereo not shown) [Compound 11a]: 484 ± 24.7 nM.
Consider `CCC1CN2CCc3cc(OC)c(OC)cc3C2CC1CC1c2cc(OC)c(OC)cc2CCN1C(=S)Nc1ccc(OC)cc1` (stereo not shown) [Compound 11b], for which the IC50 in the assay on DU145 cells (setting [2]) came to 467 ± 25 nM.
Turning to `CCC1CN2CCc3cc(OC)c(OC)cc3C2CC1CC1c2cc(OC)c(OC)cc2CCN1C(=S)Nc1ccc(Cl)cc1` (stereo not shown) [Compound 11c], in the assay with PC3 cells (setting [1]), the IC50 is 505 ± 15.9 nM.
As to `CCC1CN2CCc3cc(OC)c(OC)cc3C2CC1CC1c2cc(OC)c(OC)cc2CCN1C(=S)Nc1ccc(Br)cc1` (stereo not shown) [Compound 11d], the IC50 in the assay on PC3 cells (setting [1]) is 443 ± 38.3 nM; in the assay with LNCaP cells it was 339 ± 32.7 nM.
On to `CCC1CN2CCc3cc(OC)c(OC)cc3C2CC1CC1c2cc(OC)c(OC)cc2CCN1C(=S)NCc1ccc(OC)cc1` (stereo not shown) [Compound 11f], for which, in the assay with PC3 cells (setting [1]), the half-inhibitory concentration (IC50) turned out to be 5000 ± 307 nM.
Take `CCC1CN2CCc3cc(OC)c(OC)cc3C2CC1CC1c2cc(OC)c(OC)cc2CCN1C(=S)NCc1ccccc1Cl` (stereo not shown) [Compound 11h]: the half-inhibitory concentration (IC50) in the assay with DU145 cells (setting [2]) turned out to be 2370 ± 112 nM.
For `CCC1CN2CCc3cc(OC)c(OC)cc3C2CC1CC1c2cc(OC)c(OC)cc2CCN1C(=S)NCc1ccc(F)cc1` (stereo not shown) [Compound 11i], in the assay with PC3 cells (setting [1]), the IC50 worked out at 5270 ± 372 nM.
On to `CCC1CN2CCc3cc(OC)c(OC)cc3C2CC1CC1c2cc(OC)c(OC)cc2CCN1C(=S)NCc1ccc(C)cc1` (stereo not shown) [Compound 11j], for which, in the assay on DU145 cells (setting [2]), the half-maximal inhibitory concentration (IC50) amounted to 2630 ± 106 nM.
For the molecule `CCCCCCNC(=S)N1CCc2cc(OC)c(OC)cc2C1CC1CC2c3cc(OC)c(OC)cc3CCN2CC1CC` (stereo not shown) [Compound 11l], the IC50 was 2450 ± 323 nM with PC3 cells (setting [1]) and 1700 ± 144 nM with LNCaP cells.
For `CCCCCCCCNC(=S)N1CCc2cc(OC)c(OC)cc2C1CC1CC2c3cc(OC)c(OC)cc3CCN2CC1CC` (stereo not shown) [Compound 11m] the same measures were 1420 ± 336 nM and 1010 ± 249 nM.
As to `CCC1CN2CCc3cc(OC)c(OC)cc3C2CC1CC1c2cc(OC)c(OC)cc2CCN1C(=S)NCCOC` (stereo not shown) [Compound 11n], in the assay on PC3 cells (setting [1]), the IC50 was more than 10000 nM.
In the case of `CCC1CN2CCc3cc(OC)c(OC)cc3C2CC1CC1c2cc(OC)c(OC)cc2CCN1C(=O)NCc1ccccc1` (stereo not shown) [Compound 13e], the concentration for half-maximal inhibition (IC50) with LNCaP cells was determined as 2120 ± 576 nM.
As for `CCC1CN2CCc3cc(OC)c(OC)cc3C2CC1CC1c2cc(OC)c(OC)cc2CCN1C(=O)/C=C/C(=O)O` (stereo not shown) [Compound 15a2], the IC50 in the assay on PC3 cells (setting [3]) amounted to 8390 ± 208 nM; with PC3 cells (setting [4]) it was 7058 ± 15.7 nM; in the assay with PC3 cells (setting [5]), 7710 ± 151 nM; in the assay with DU145 cells (setting [6]), 7960 ± 312 nM; with DU145 cells (setting [7]) it was 5730 ± 182 nM; with DU145 cells (setting [8]), 4230 ± 418 nM.
Regarding `CCC1CN2CCc3cc(OC)c(OC)cc3C2CC1CC1c2cc(OC)c(OC)cc2CCN1C(=O)/C(Cl)=C(\Cl)C(=O)O` (stereo not shown) [Compound 15b2], the IC50 is 7580 ± 135 nM in the assay with PC3 cells (setting [3]); 5990 ± 238 nM in the assay on PC3 cells (setting [4]); 7510 ± 168 nM with PC3 cells (setting [5]); 6530 ± 85.2 nM in the assay with DU145 cells (setting [6]); 5990 ± 238 nM in the assay on DU145 cells (setting [7]); 5218 ± 45.9 nM in the assay with DU145 cells (setting [8]).
In the case of `CCC1CN2CCc3cc(OC)c(OC)cc3C2CC1CC1c2cc(OC)c(OC)cc2CCN1C(=O)/C=C(/CC(=O)O)C(=O)O` (stereo not shown) [Compound 15d2], the IC50 turned out to be 3060 ± 110 nM in the assay with PC3 cells (setting [3]); 2430 ± 118 nM in the assay with PC3 cells (setting [4]); 2890 ± 123 nM with PC3 cells (setting [5]); 2580 ± 190 nM in the assay with DU145 cells (setting [6]); 2010 ± 73.4 nM in the assay on DU145 cells (setting [7]); 1790 ± 134 nM in the assay with DU145 cells (setting [8]).
Consider `CCC1CN2CCc3cc(OC)c(OC)cc3C2CC1CC1c2cc(OC)c(OC)cc2CCN1C(=O)CCC(=O)O` (stereo not shown) [Compound 15e2], for which the IC50 with PC3 cells (setting [3]) turned out to be 2500 ± 72.2 nM; in the assay with PC3 cells (setting [4]), 1820 ± 161 nM; in the assay with PC3 cells (setting [5]) it was 2150 ± 131 nM; in the assay on DU145 cells (setting [6]), 733 ± 22 nM; in the assay on DU145 cells (setting [7]) it was 641 ± 54.3 nM; in the assay with DU145 cells (setting [8]), 802 ± 19.8 nM.
